Source: paper PMC12434308 (Nature chemical biology, 2021)

How the values were obtained:
ACE2+ HEK293 cells [1] = test: SNA and PNA lectin staining by flow cytometry; type: cell-based; details: 3 d treatment, 300 μM
Vero-E6 cells = type: cell-based
ACE2 = test: anti-ACE2 antibody staining by flow cytometry; type: cell-based, human; details: ACE2+ HEK293 cells, 3FNeu5Ac treatment
control lentivirus = type: cell-based
ACE2+ HEK293 cells [2] = test: fluorescent SARS-CoV-2 RBD trimer binding by flow cytometry; type: cell-based
[3] = tested on: SARS-CoV-2 pseudotyped lentivirus; type: cell-based
SARS-CoV-2 S1 protein = details: model sialylated species; cited from earlier work
SARS-CoV-2 RBD [4] = target: T1, SARS-CoV-2 RBD (Severe acute respiratory syndrome coronavirus 2, UniProt P0DTC2)
RBD = details: read-out: Kd for the RBD; glycan immobilized, average MW 15,700 Da; cited from earlier work
[5] = tested on: ferret lung tissue sections
SARS-CoV-2 RBD [6] = target: T1, SARS-CoV-2 RBD; remark: listed apart in the source
SARS-CoV-2 S protein = SARS-CoV-2 S protein (Severe acute respiratory syndrome coronavirus 2, UniProt P0DTC2)

**Q.** What does the source list for CC(=O)N[C@H]1[C@H]([C@H](O)[C@H](O)CO)O[C@](O)(C(=O)O)C(F)[C@@H]1O (some centres unmarked) [3FNeu5Ac]?
**A.** Sia on the cell surface (SNA and PNA staining) (ACE2+ HEK293 cells [1]): substantially decreased; RBD binding to treated Vero-E6 cells (Vero-E6 cells): decrease in RBD binding; ACE2 levels after ST inhibition (ACE2): did not alter; viral entry of control lentivirus (control lentivirus): no differences were observed; RBD binding to treated cells (ACE2+ HEK293 cells [2]; 300 μM, 72 h): consistently decreased; decrease in pseudotyped lentivirus infectivity [3]: 30–40%

**Q.** Which Kd (SARS-CoV-2 S1 protein) does the source give for CC(=O)N[C@H]1[C@H]([C@H](O)[C@H](O)CO)O[C@@](O[C@H]2[C@@H](O)[C@@H](CO)O[C@@H](O[C@H]3[C@H](O)[C@@H](O)C(O)O[C@@H]3CO)[C@@H]2O)(C(=O)O)C[C@@H]1O (some centres unmarked) [3′-sialyllactose] here?
**A.** Its Kd is “millimolar”.

**Q.** For CCCCCCCCC(=O)N[C@H](CN1CCCC1)[C@H](O)c1ccc2c(c1)OCCO2 [GENZ-123346], which “infection of control lentivirus” value (control lentivirus) is on record?
**A.** The value was “did not show differences”.

**Q.** What about the “SARS-CoV-2 RBD binding to glycolipid-depleted cells” value (ACE2+ HEK293 cells [2]; 5 μM, 48 h) of the same compound?
**A.** The value was “significant decreases”.

**Q.** What about the “pseudotyped viral infection of glycolipid-depleted cells” value [3] of the same compound?
**A.** Its value is “significant decreases”.

**Q.** What about the pseudoviral entry [3] of the same compound?
**A.** The pseudoviral entry was “failed to elicit an effect”.

**Q.** For COC1(C(=O)O)CC(O)C(NC(C)=O)C(C(O)C(O)CO)O1 (stereo not drawn) [MeαNeu5Ac, methyl α-sialoside], which “relative abundance of released 69 on addition of competitor” value (SARS-CoV-2 RBD [4]) is on record?
**A.** Its value is “qualitatively similar results as 41”.

**Q.** For “Galα(1-3)[Fucα(1-2)]Galβ(1-4)[Fucα(1-3)]Glc [glycan 87]”, which “ligand released from RBD in presence of excess MeαNeu5Ac” value (SARS-CoV-2 RBD [4]) is on record?
**A.** The value was “most abundant ligand released”.

**Q.** Which Kd (RBD) does the source give for heparin here?
**A.** Its Kd is 1000 nM.

**Q.** With neuraminidase from Vibrio cholerae as the compound, how does the “decrease of SARS-CoV-2 RBD binding” value [5] read?
**A.** Its value is roughly 80%.

**Q.** And the “decrease of SARS-CoV-2 RBD binding” value (Vero-E6 cells)?
**A.** Its value is roughly 80%.

**Q.** For “α-D-Neu5Ac-(2→3)-β-D-Gal-(1→3)-β-D-GalNAc-(1→4)-[α-D-Neu5Ac-(2→3)]-β-D-Gal-(1→4)-β-D-Glc-ceramide [GD1a]”, which “ganglioside ions released from RBD complexes (nanodisc)” value (“ganglioside ions released” for short) (SARS-CoV-2 RBD [6]) is on record?
**A.** Its value is “no signals”.

**Q.** Which “ganglioside ions released” value (SARS-CoV-2 RBD [6]) does the source give for “α-D-Neu5Ac-(2→3)-β-D-Gal-(1→4)-β-D-Glc-ceramide [GM3]” here?
**A.** The value was “measured”.

**Q.** For α-Gal-Lewis X [glycan 50], which “relative CaR-ESI-MS response of ligand released from S protein” value (SARS-CoV-2 S protein) is on record?
**A.** Its value is “enhanced”.

**Q.** With “α-Neu5Ac-(2→3)-β-D-Gal-(1→3)-β-D-GalNAc-(1→4)-[α-Neu5Ac-(2→8)-α-Neu5Ac-(2→3)]-β-D-Gal-(1→4)-β-D-Glc-ceramide [GT1b]” as the compound, how does the “ganglioside ions released” value (SARS-CoV-2 RBD [6]) read?
**A.** The value was “no signals”.

**Q.** With “β-D-Gal-(1→3)-β-D-GalNAc-(1→4)-[α-D-Neu5Ac-(2→3)]-β-D-Gal-(1→4)-β-D-Glc-ceramide [GM1]” as the compound, how does the “ganglioside ions released” value (SARS-CoV-2 RBD [6]) read?
**A.** The value was “measured”.

**Q.** For “β-D-GalNAc-(1→4)-[α-D-Neu5Ac-(2→3)]-β-D-Gal-(1→4)-β-D-Glc-ceramide [GM2]”, which “ganglioside ions released” value (SARS-CoV-2 RBD [6]) is on record?
**A.** Its value is “measured”.

**Q.** For “β-D-GalNAc-(1→4)-[α-D-Neu5Ac-(2→8)-α-D-Neu5Ac-(2→3)]-β-D-Gal-(1→4)-β-D-Glc-ceramide [GD2]”, which “ganglioside ions released” value (SARS-CoV-2 RBD [6]) is on record?
**A.** Its value is “no signals”.
